In patent US20020026053A1, “Novel 3-(substituted) -2- indolinones compounds and use thereof as inhibitors of protein kinase activity” (priority 1997, published 2002):

Biological target: T1, EGFR (Homo sapiens, UniProt P00533)
T1 construct: endogenous in cells; host or cells: A431 cells (lysate, captured with SUMO1 anti-EGFR antibody)
Assay: Biochemical EGFR Assay
Design: concentration or dose not given beside the values
In short: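 Readout is ABTS absorbance at 410 nm after anti-phosphotyrosine and HRP-antibody detection of EGFR autophosphorylation. The kinase was immunocaptured from A431 lysate, exposed 30 min to test compound diluted 1:10 in TBS, then phosphorylated for 5 min with ATP/MnCl2 before an EDTA stop.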

T1 sequence (P00533 25-1210): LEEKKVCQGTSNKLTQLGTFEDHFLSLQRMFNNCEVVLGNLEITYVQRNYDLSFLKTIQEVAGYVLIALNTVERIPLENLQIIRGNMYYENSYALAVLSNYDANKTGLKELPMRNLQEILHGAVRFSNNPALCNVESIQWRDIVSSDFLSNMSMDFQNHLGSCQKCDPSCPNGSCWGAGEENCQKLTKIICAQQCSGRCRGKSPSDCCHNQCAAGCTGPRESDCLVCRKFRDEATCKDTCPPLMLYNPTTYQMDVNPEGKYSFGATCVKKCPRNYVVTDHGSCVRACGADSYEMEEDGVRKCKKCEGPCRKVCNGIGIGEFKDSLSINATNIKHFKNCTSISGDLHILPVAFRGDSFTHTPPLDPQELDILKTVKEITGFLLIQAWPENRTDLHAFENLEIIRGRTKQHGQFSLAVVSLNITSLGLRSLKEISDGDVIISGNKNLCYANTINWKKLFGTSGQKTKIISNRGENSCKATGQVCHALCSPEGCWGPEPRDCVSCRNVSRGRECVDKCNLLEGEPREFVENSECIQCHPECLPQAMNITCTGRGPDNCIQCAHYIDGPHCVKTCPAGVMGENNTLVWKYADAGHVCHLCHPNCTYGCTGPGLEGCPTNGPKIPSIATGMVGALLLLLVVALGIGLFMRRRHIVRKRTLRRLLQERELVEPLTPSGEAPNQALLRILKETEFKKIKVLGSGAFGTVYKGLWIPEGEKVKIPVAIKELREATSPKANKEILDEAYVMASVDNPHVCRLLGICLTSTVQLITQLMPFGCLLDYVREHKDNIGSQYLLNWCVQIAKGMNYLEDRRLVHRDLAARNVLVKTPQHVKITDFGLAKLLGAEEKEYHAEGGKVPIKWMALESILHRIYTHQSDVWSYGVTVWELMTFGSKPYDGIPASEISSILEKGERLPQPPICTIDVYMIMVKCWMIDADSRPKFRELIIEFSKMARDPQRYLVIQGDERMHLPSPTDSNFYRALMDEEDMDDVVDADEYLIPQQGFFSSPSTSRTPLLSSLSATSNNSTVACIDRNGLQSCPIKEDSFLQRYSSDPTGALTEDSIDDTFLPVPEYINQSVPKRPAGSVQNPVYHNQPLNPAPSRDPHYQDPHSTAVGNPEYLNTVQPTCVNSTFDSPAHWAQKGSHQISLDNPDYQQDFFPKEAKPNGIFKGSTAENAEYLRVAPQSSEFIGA

Row | Structure (SMILES) | Biochem EGFR % Inhibition (P.167)
1 | Cc1c(O)ccc(C=C2C(=O)Nc3c(Br)cc(Br)c(C)c32)c1O [10718/H09] | 34.2%
2 | Cc1c(Br)cc(Br)c2c1C(=Cc1ccco1)C(=O)N2 [10718/H10] | −5.7%
3 | Cc1c(Br)cc(Br)c2c1C(=Cc1ccc([N+](=O)[O-])o1)C(=O)N2 [10718/H11] | 4.4%
4 | CCOc1ccc(C=C2C(=O)Nc3c(Br)cc(Br)c(C)c32)cc1OC [10719/H02] | 43.9%
5 | Cc1c(Br)cc(Br)c2c1C(=Cc1ccc(O)c(O)c1)C(=O)N2 [10719/H03] | 25.1%
6 | COc1ccc(C=C2C(=O)Nc3c(Br)cc(Br)c(C)c32)c(OC)c1 [10719/H04] | −0.5%
7 | CCc1c(C)[nH]c(C=C2C(=O)Nc3c(Br)cc(Br)c(C)c32)c1C [10719/H05] | 7.9%
8 | COc1cc(OC)c(C=C2C(=O)Nc3c(Br)cc(Br)c(C)c32)c(OC)c1 [10719/H06] | −28.0%
9 | CCN(CC)c1ccc(C=C2C(=O)Nc3c(Br)cc(Br)c(C)c32)c(O)c1 [10734/H05] | 4.7%
10 | Cc1c(Br)cc(Br)c2c1C(=Cc1ccc([N+](=O)[O-])cc1)C(=O)N2 [10734/H06] | −32.2%
11 | Cc1c(Br)cc(Br)c2c1C(=Cc1cc(Br)cc(Br)c1O)C(=O)N2 [10734/H07] | 6.6%
12 | Cc1c(Br)cc(Br)c2c1C(=Cc1cccc(F)c1O)C(=O)N2 [10734/H08] | 2.9%
13 | Cc1c(Br)cc(Br)c2c1C(=Cc1ccc(O)c(Br)c1)C(=O)N2 [10734/H09] | −4.2%
14 | Cc1c(Br)cc(Br)c2c1C(=Cc1ccc(C(C)(C)C)cc1)C(=O)N2 [10734/H10] | −12.6%
15 | Cc1c(Br)cc(Br)c2c1C(=Cc1ccc(Br)s1)C(=O)N2 [10734/H11] | −8.5%
16 | Cc1ccccc1C=C1C(=O)Nc2c(Br)cc(Br)cc21 [10735/A02] | 14.3%
17 | O=C1Nc2c(Br)cc(Br)cc2C1=Cc1ccc(F)c(F)c1 [10735/A03] | 28.8%
18 | O=C1Nc2c(Br)cc(Br)cc2C1=Cc1cc(F)cc(F)c1 [10735/A04] | 5.0%
19 | O=C1Nc2c(Br)cc(Br)cc2C1=Cc1cccc(C(F)(F)F)c1 [10735/A05] | 41.5%
20 | O=C1Nc2c(Br)cc(Br)cc2C1=Cc1cc(C(F)(F)F)cc(C(F)(F)F)c1 [10735/A06] | 24.9%
21 | N#Cc1ccccc1C=C1C(=O)Nc2c(Br)cc(Br)cc21 [10735/A07] | 18.7%
22 | O=C1Nc2c(Br)cc(Br)cc2C1=Cc1c(F)cccc1F [10735/A08] | 10.9%
23 | O=C1Nc2c(Br)cc(Br)cc2C1=Cc1cccc2ccccc12 [10735/A09] | 13.0%
24 | O=C1Nc2c(Br)cc(Br)cc2C1=Cc1ccc(Cl)cc1Cl [10735/A10] | 10.2%
25 | O=C1Nc2c(Br)cc(Br)cc2C1=Cc1ccc(-c2ccccc2)cc1 [10735/A11] | 3.3%
26 | Cc1ccccc1C=C1C(=O)Nc2ccc(I)cc21 [10735/B02] | 39.1%

Row | Structure (SMILES) | Biochem EGFR % Inhibition (P.167)
27 | O=C1Nc2ccc(I)cc2C1=Cc1ccc(F)c(F)c1 [10735/B03] | 42.9%
28 | O=C1Nc2ccc(I)cc2C1=Cc1cc(F)cc(F)c1 [10735/B04] | 49.2%
29 | O=C1Nc2ccc(I)cc2C1=Cc1cccc(C(F)(F)F)c1 [10735/B05] | 61.6%
30 | O=C1Nc2ccc(I)cc2C1=Cc1cc(C(F)(F)F)cc(C(F)(F)F)c1 [10735/B06] | 49.4%
31 | N#Cc1ccccc1C=C1C(=O)Nc2ccc(I)cc21 [10735/B07] | 47.7%
32 | O=C1Nc2ccc(I)cc2C1=Cc1c(F)cccc1F [10735/B08] | 24.5%
33 | O=C1Nc2ccc(I)cc2C1=Cc1cccc2ccccc12 [10735/B09] | 39.8%
34 | O=C1Nc2ccc(I)cc2C1=Cc1ccc(Cl)cc1Cl [10735/B10] | 30.1%
35 | O=C1Nc2ccc(I)cc2C1=Cc1ccc(-c2ccccc2)cc1 [10735/B11] | 52.4%
36 | Cc1ccccc1C=C1C(=O)Nc2ccc(Br)c(C)c21 [10735/C02] | 1.6%
37 | Cc1c(Br)ccc2c1C(=Cc1ccc(F)c(F)c1)C(=O)N2 [10735/C03] | 8.0%
38 | Cc1c(Br)ccc2c1C(=Cc1cc(F)cc(F)c1)C(=O)N2 [10735/C04] | 5.8%
39 | Cc1c(Br)ccc2c1C(=Cc1cccc(C(F)(F)F)c1)C(=O)N2 [10735/C05] | 14.5%
40 | Cc1c(Br)ccc2c1C(=Cc1cc(C(F)(F)F)cc(C(F)(F)F)c1)C(=O)N2 [10735/C06] | 8.5%
41 | Cc1c(Br)ccc2c1C(=Cc1ccccc1C#N)C(=O)N2 [10735/C07] | −4.9%
42 | Cc1c(Br)ccc2c1C(=Cc1c(F)cccc1F)C(=O)N2 [10735/C08] | −11.3%
43 | Cc1c(Br)ccc2c1C(=Cc1cccc3ccccc13)C(=O)N2 [10735/C09] | −22.1%
44 | Cc1c(Br)ccc2c1C(=Cc1ccc(Cl)cc1Cl)C(=O)N2 [10735/C10] | −14.4%
45 | Cc1c(Br)ccc2c1C(=Cc1ccc(-c3ccccc3)cc1)C(=O)N2 [10735/C11] | −6.4%
46 | CNS(=O)(=O)c1ccc2c(c1)C(=Cc1ccccc1C)C(=O)N2 [10735/D02] | 20.3%
47 | CNS(=O)(=O)c1ccc2c(c1)C(=Cc1ccc(F)c(F)c1)C(=O)N2 [10735/D03] | 7.5%
48 | CNS(=O)(=O)c1ccc2c(c1)C(=Cc1cc(F)cc(F)c1)C(=O)N2 [10735/D04] | 3.8%
49 | CNS(=O)(=O)c1ccc2c(c1)C(=Cc1cccc(C(F)(F)F)c1)C(=O)N2 [10735/D05] | 23.0%
50 | CNS(=O)(=O)c1ccc2c(c1)C(=Cc1cc(C(F)(F)F)cc(C(F)(F)F)c1)C(=O)N2 [10735/D06] | 8.0%
51 | CNS(=O)(=O)c1ccc2c(c1)C(=Cc1ccccc1C#N)C(=O)N2 [10735/D07] | −17.6%
52 | CNS(=O)(=O)c1ccc2c(c1)C(=Cc1c(F)cccc1F)C(=O)N2 [10735/D08] | −1.5%

Row | Structure (SMILES) | Biochem EGFR % Inhibition (P.167)
53 | CNS(=O)(=O)c1ccc2c(c1)C(=Cc1cccc3ccccc13)C(=O)N2 [10735/D09] | −0.3%
54 | CNS(=O)(=O)c1ccc2c(c1)C(=Cc1ccc(Cl)cc1Cl)C(=O)N2 [10735/D10] | 46.5%
55 | CNS(=O)(=O)c1ccc2c(c1)C(=Cc1ccc(-c3ccccc3)cc1)C(=O)N2 [10735/D11] | −16.5%
56 | Cc1ccccc1C=C1C(=O)Nc2ccc(S(=O)(=O)Nc3ccc(C(F)(F)F)cc3)cc21 [10735/E02] | 16.7%
57 | O=C1Nc2ccc(S(=O)(=O)Nc3ccc(C(F)(F)F)cc3)cc2C1=Cc1ccc(F)c(F)c1 [10735/E03] | 18.9%
58 | O=C1Nc2ccc(S(=O)(=O)Nc3ccc(C(F)(F)F)cc3)cc2C1=Cc1cc(F)cc(F)c1 [10735/E04] | 14.3%
59 | O=C1Nc2ccc(S(=O)(=O)Nc3ccc(C(F)(F)F)cc3)cc2C1=Cc1cccc(C(F)(F)F)c1 [10735/E05] | 30.6%
60 | O=C1Nc2ccc(S(=O)(=O)Nc3ccc(C(F)(F)F)cc3)cc2C1=Cc1cc(C(F)(F)F)cc(C(F)(F)F)c1 [10735/E06] | 8.7%
61 | N#Cc1ccccc1C=C1C(=O)Nc2ccc(S(=O)(=O)Nc3ccc(C(F)(F)F)cc3)cc21 [10735/E07] | 27.4%
62 | O=C1Nc2ccc(S(=O)(=O)Nc3ccc(C(F)(F)F)cc3)cc2C1=Cc1c(F)cccc1F [10735/E08] | 10.2%
63 | O=C1Nc2ccc(S(=O)(=O)Nc3ccc(C(F)(F)F)cc3)cc2C1=Cc1cccc2ccccc12 [10735/E09] | −3.9%
64 | O=C1Nc2ccc(S(=O)(=O)Nc3ccc(C(F)(F)F)cc3)cc2C1=Cc1ccc(Cl)cc1Cl [10735/E10] | 19.1%
65 | O=C1Nc2ccc(S(=O)(=O)Nc3ccc(C(F)(F)F)cc3)cc2C1=Cc1ccc(-c2ccccc2)cc1 [10735/E11] | 10.1%
66 | Cc1ccccc1C=C1C(=O)Nc2ccc(S(=O)(=O)N3CCOCC3)cc21 [10735/F02] | 19.8%
67 | O=C1Nc2ccc(S(=O)(=O)N3CCOCC3)cc2C1=Cc1ccc(F)c(F)c1 [10735/F03] | 19.1%
68 | O=C1Nc2ccc(S(=O)(=O)N3CCOCC3)cc2C1=Cc1cc(F)cc(F)c1 [10735/F04] | 10.6%
69 | O=C1Nc2ccc(S(=O)(=O)N3CCOCC3)cc2C1=Cc1cccc(C(F)(F)F)c1 [10735/F05] | 5.5%
70 | O=C1Nc2ccc(S(=O)(=O)N3CCOCC3)cc2C1=Cc1cc(C(F)(F)F)cc(C(F)(F)F)c1 [10735/F06] | 13.0%
71 | N#Cc1ccccc1C=C1C(=O)Nc2ccc(S(=O)(=O)N3CCOCC3)cc21 [10735/F07] | 28.9%
72 | O=C1Nc2ccc(S(=O)(=O)N3CCOCC3)cc2C1=Cc1c(F)cccc1F [10735/F08] | 9.4%
73 | O=C1Nc2ccc(S(=O)(=O)N3CCOCC3)cc2C1=Cc1cccc2ccccc12 [10735/F09] | 0.0%
74 | O=C1Nc2ccc(S(=O)(=O)N3CCOCC3)cc2C1=Cc1ccc(Cl)cc1Cl [10735/F10] | 15.7%
75 | O=C1Nc2ccc(S(=O)(=O)N3CCOCC3)cc2C1=Cc1ccc(-c2ccccc2)cc1 [10735/F11] | 14.8%
76 | Cc1ccccc1C=C1C(=O)Nc2ccc(CCCl)cc21 [10735/G02] | 23.7%
77 | O=C1Nc2ccc(CCCl)cc2C1=Cc1ccc(F)c(F)c1 [10735/G03] | 30.3%
